Experiment [1] relates to Wild type HCV protease. The experiment in a line: Steatosis associated with HCV protease expression, Oil Red O staining of liver sections. The following applies: 300 mg/kg BID oral for the initial 3 days; 10^11 IFU/mouse; sacrificed at 7 days. The format is in vivo, SCID mice. The procedure:
FIG. 25 depicts that steatosis associated with HCV protease expression can be ameliorated by HCV protease inhibitor VX-950. SCID mice were injected with 10^11 IFU/mouse of replication defective adenovirus expressing Wild type HCV protease or mutant HCV protease or SEAP alone (n=6). One group of mice (n=6) injected with adenovirus expressing wild type HCV protease were treated with 300 mg/kg BID via oral route for the initial 3 days. All the mice were sacrificed at 7 days and liver sections were stained with Oil Red O. A significant accumulation of fat in the livers of mice expressing wild type HCV protease compared to either mutant HCV protease or SEAP alone groups (20× magnification).
1. Cryostat frozen sections of livers stored at −80° C. were tested.
2. The Oil Red O Solution was prepared as follows:
a) Stock Solution Oil Red O: 500 mg Oil red O stain (Sigma O-0625) was dissolved in 100 ml isopropanol at room temperature overnight with stirring. The solution was filtered through a #1 Whatman filter. The solution was stored at room temperature protected from light.
b) Working Oil Red Solution was prepared fresh the day of assay. 40% water was mixed with 60% Oil Red O stock by inversion.
c) The working solution was kept at room temperature for 1 hour before filtering. Particulate material was filtered out using a #1 Whatman filter paper.
3. […]
13. The results were assessed by microscopy.

Experiment [2] concerns Ad.WT.HCVpro. The experiment in a line: Liver injury in mice infected with adenovirus expressing WT HCV protease. The following applies: 300 mg/kg orally twice a day for the first three days; 10^11 IFU/mice; sacrificed after 7 days.
Experiment [3] deals with Ad.MT.HCVpro (mutant HCV protease fused with SEAP). The experiment is described as follows: HCV protease mouse model: SEAP in serum, mutant HCV protease adenovirus. The format is in vivo, SCID mice. As to conditions: 300 mg/kg orally twice a day; 10^9.5 IFU/mice Ad.MT.HCVpro; serum 24 hours post-infection.

SMILES strings stand for the structures. Entries after “also recorded” stand apart in the source; their conditions may differ.

Take `CCC[C@H](NC(=O)[C@@H]1[C@H]2CCC[C@H]2CN1C(=O)[C@@H](NC(=O)[C@@H](NC(=O)c1cnccn1)C1CCCCC1)C(C)(C)C)C(=O)C(=O)NC1CC1` [VX-950]: in experiment [1], the “amelioration of steatosis (Oil Red O staining)” value is reported as “effective at ameliorating steatosis; also recorded: ameliorated”. For the same compound, the “protection from liver injury (gross appearance and H&E liver pathology)” value in experiment [2] is “protects mice from Liver injury”. For the same compound, in experiment [3], the “effect on Mutant HCV protease activity (SEAP in serum)” value is listed as “No effect”.

Source of the values: patent publication US20050120398A1, “Animal model for HCV infection” (Vertex Pharmaceuticals Incorporated, priority 2003, published 2005).
